Assay [1] has as its target T1, human B1R (Homo sapiens, UniProt P46663).
T1 construct: expressed in transfected cells; host or cells: CHO K1 cells (Chinese hamster ovary), stably transfected
T1 sequence (P46663 1-353): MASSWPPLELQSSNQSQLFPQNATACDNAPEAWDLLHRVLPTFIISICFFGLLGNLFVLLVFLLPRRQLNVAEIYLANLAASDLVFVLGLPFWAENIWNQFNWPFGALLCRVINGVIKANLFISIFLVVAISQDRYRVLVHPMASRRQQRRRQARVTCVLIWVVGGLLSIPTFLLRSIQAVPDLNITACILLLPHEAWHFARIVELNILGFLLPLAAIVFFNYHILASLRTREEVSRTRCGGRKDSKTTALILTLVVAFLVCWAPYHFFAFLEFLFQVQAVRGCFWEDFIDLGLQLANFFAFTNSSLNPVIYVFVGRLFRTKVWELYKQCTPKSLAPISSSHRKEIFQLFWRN
As to the kind of experiment: FLIPR Ca2+ functional assay, B1R antagonism, human B1R in CHO K1 cells. As to conditions: test substance 10 μM; hB1R CHO K1 cells; agonist Lys-Des-Arg9 bradykinin at EC80; % of maximum achievable inhibition. Format: cell-based. Put shortly: (§1)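 IC50 values come from varied compound concentrations applied 10-20 min before an EC80 agonist challenge, with Des-Arg9 bradykinin for rat and Lys-Des-Arg9 bradykinin for human receptor. Ca2+ influx in Fluo-4-loaded CHO K1 transfectants was measured by FLIPR peak fluorescence. Data are % inhibition vs maximum, n=2-3, N>=2.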

Assay [2] has as its target T2, B1R of the rat (Rattus norvegicus, UniProt P97583).
T2 construct: expressed in transfected cells; host or cells: CHO K1 cells (Chinese hamster ovary), stably transfected
T2 sequence (P97583 1-337): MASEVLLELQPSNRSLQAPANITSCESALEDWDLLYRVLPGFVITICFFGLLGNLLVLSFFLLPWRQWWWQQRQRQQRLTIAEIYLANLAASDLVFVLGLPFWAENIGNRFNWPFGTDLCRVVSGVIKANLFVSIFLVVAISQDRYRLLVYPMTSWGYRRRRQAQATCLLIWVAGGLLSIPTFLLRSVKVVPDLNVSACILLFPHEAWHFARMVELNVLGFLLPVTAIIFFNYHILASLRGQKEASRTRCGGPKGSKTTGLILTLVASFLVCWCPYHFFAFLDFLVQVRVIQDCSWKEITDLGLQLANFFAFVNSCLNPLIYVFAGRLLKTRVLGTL
Briefly: FLIPR Ca2+ functional assay, B1R antagonism, rat B1R in CHO K1 cells. Format: cell-based. The following applies: test substance 10 μM; rB1R CHO K1 cells; agonist Des-Arg9 bradykinin at EC80; % of maximum achievable inhibition. Put shortly:
as §1

On to `Cc1ccc(S(=O)(=O)N2CCn3cccc3C2CC(=O)NC2CCc3cc(CN(C)C(C)(C)C)ccc3C2)cc1Cl` (stereo not drawn) [Example 75, N-[6-[(tert-Butyl-methyl-amino)-methyl]-1,2,3,4-tetrahydro-naphthalen-2-yl]-2-[2-[(3-chloro-4-methyl-phenyl)sulfonyl]-1,2,3,4-tetrahydro-pyrrolo[1,2-a]pyrazin-1-yl]-acetamide], for which the inhibition – broadly, the relative decrease from the control value, in per cent – at 10 µM in assay [1] stood at 99.9%; in assay [2], 102%.
In the case of `Cc1ccc(S(=O)(=O)N2CCn3cccc3C2CC(=O)NC2CCCc3cc(CN(C)C(C)(C)C)ccc32)cc1Cl` (stereo not drawn) [Example 76, N-[6-[(tert-Butyl-methyl-amino)-methyl]-1,2,3,4-tetrahydro-naphthalen-1-yl]-2-[2-[(3-chloro-4-methyl-phenyl)sulfonyl]-1,2,3,4-tetrahydro-pyrrolo[1,2-a]pyrazin-1-yl]-acetamide], the inhibition at 10 µM in assay [1] was 99.8%; in assay [2], 101%.
The corresponding values for `Cc1ccc(S(=O)(=O)N2CCn3cccc3C2CC(=O)NC2CCc3cc(CN4C5CCCC4CC5)ccc3C2)cc1` (stereo not drawn) [Example 77, N-[6-(8-Azabicyclo[3.2.1]octan-8-yl-methyl)-1,2,3,4-tetrahydro-naphthalen-2-yl]-2-[2-(p-tolylsulfonyl)-1,2,3,4-tetrahydro-pyrrolo[1,2-a]pyrazin-1-yl]-acetamide] are 99.2% and 103%.
The corresponding values for `Cc1ccc(S(=O)(=O)N2CCn3cccc3C2CC(=O)NC2CCCc3cc(CN4CCN(C)CC4)ccc32)cc1` (stereo not drawn) [Example 78, N-[6-[(4-Methyl-piperazin-1-yl)-methyl]-1,2,3,4-tetrahydro-naphthalen-1-yl]-2-[2-(p-tolylsulfonyl)-1,2,3,4-tetrahydro-pyrrolo[1,2-a]pyrazin-1-yl]-acetamide] are 99.8% and 86.2%.
The corresponding values for `Cc1ccc(S(=O)(=O)N2CCn3cccc3C2CC(=O)NC2CCc3cc(CN4CCCc5ccccc54)ccc3C2)cc1` (stereo not drawn) [Example 79, 2-[2-(p-Tolylsulfonyl)-1,2,3,4-tetrahydro-pyrrolo[1,2-a]pyrazin-1-yl]-N-[6-(1,2,3,4-tetrahydro-quinolin-1-yl-methyl)-1,2,3,4-tetrahydro-naphthalen-2-yl]-acetamide] are 57.9% and 99.3%.
`Cc1ccc(S(=O)(=O)N2CCn3cccc3C2CC(=O)NC2CCCc3cc(CN4CCCCC4)ccc32)cc1` (stereo not drawn) [Example 80, N-[6-(Piperidin-1-yl-methyl)-1,2,3,4-tetrahydro-naphthalen-1-yl]-2-[2-(p-tolylsulfonyl)-1,2,3,4-tetrahydro-pyrrolo[1,2-a]pyrazin-1-yl]-acetamide]: the inhibition at 10 µM in assay [1] was 99.8%; in assay [2], 101%.
With `Cc1ccc(S(=O)(=O)N2CCn3cccc3C2CC(=O)NC2CCc3cc(CN4CCN(C)CC4)ccc3C2)cc1` (stereo not drawn) [Example 81, N-[6-[(4-Methyl-piperazin-1-yl)-methyl]-1,2,3,4-tetrahydro-naphthalen-2-yl]-2-[2-(p-tolylsulfonyl)-1,2,3,4-tetrahydro-pyrrolo[1,2-a]pyrazin-1-yl]-acetamide], the inhibition at 10 µM in assay [1] was 99.1%; in assay [2], 102%.
Regarding `CC(C)(C)NCc1ccc2c(c1)CCCC2NC(=O)CC1c2cccn2CCN1S(=O)(=O)c1cccc(C(F)(F)F)c1` (stereo not drawn) [Example 82, N-[6-[(tert-Butylamino)-methyl]-1,2,3,4-tetrahydro-naphthalen-1-yl]-2-[2-[[3-(trifluoromethyl)phenyl]sulfonyl]-1,2,3,4-tetrahydro-pyrrolo[1,2-a]pyrazin-1-yl]-acetamide], the inhibition at 10 µM in assay [1] turned out to be 99.9%; in assay [2] it was 101%.
The corresponding values for `O=C(CC1c2cccn2CCN1S(=O)(=O)c1cccc(C(F)(F)F)c1)NC1CCc2cc(CNCc3ccccc3)ccc2C1` (stereo not drawn) [Example 83, N-[6-[(Benzylamino)-methyl]-1,2,3,4-tetrahydro-naphthalen-2-yl]-2-[2-[[3-(trifluoromethyl)phenyl]sulfonyl]-1,2,3,4-tetrahydro-pyrrolo[1,2-a]pyrazin-1-yl]-acetamide] are 99.3% and 101%.
Take `O=C(CC1c2cccn2CCN1S(=O)(=O)c1cccc(C(F)(F)F)c1)NC1CCc2cc(CN3CCCC3)ccc2C1` (stereo not drawn) [Example 84, N-[6-(Pyrrolidin-1-yl-methyl)-1,2,3,4-tetrahydro-naphthalen-2-yl]-2-[2-[[3-(trifluoromethyl)phenyl]sulfonyl]-1,2,3,4-tetrahydro-pyrrolo[1,2-a]pyrazin-1-yl]-acetamide]: the figures for the inhibition at 10 µM in assay [1] and in assay [2] were 99.8% and 100%, respectively.
For `Cc1ccc(S(=O)(=O)N2CCn3cccc3C2CC(=O)NC2CCCc3cc(CN4CCCC4)ccc32)cc1` (stereo not drawn) [Example 85, 2-[2-(p-Tolylsulfonyl)-1,2,3,4-tetrahydro-pyrrolo[1,2-a]pyrazin-1-yl]-N-[6-(pyrrolidin-1-yl-methyl)-1,2,3,4-tetrahydro-naphthalen-1-yl]-acetamide], the inhibition at 10 µM in assay [1] stood at 99.9%; in assay [2], 101%.
The corresponding values for `O=C(CC1c2cccn2CCN1S(=O)(=O)c1cccc(C(F)(F)F)c1)NC1CCCc2cc(CN3CCCC3)ccc21` (stereo not drawn) [Example 86, N-[6-(Pyrrolidin-1-yl-methyl)-1,2,3,4-tetrahydro-naphthalen-1-yl]-2-[2-[[3-(trifluoromethyl)phenyl]sulfonyl]-1,2,3,4-tetrahydro-pyrrolo[1,2-a]pyrazin-1-yl]-acetamide] are 99.8% and 97.5%.
Take `Cc1ccc(S(=O)(=O)N2CCn3cccc3C2CC(=O)NC2CCc3cc(CN4CCOCC4)ccc3C2)cc1` (stereo not drawn) [Example 87, N-[6-(Morpholin-4-yl-methyl)-1,2,3,4-tetrahydro-naphthalen-2-yl]-2-[2-(p-tolylsulfonyl)-1,2,3,4-tetrahydro-pyrrolo[1,2-a]pyrazin-1-yl]-acetamide]: the values for the inhibition at 10 µM in assay [1] and in assay [2] were 99.4% and 102%, respectively.
The corresponding values for `O=C(CC1c2cccn2CCN1S(=O)(=O)c1cccc(C(F)(F)F)c1)NC1CCc2cc(CN3C4CCCC3CC4)ccc2C1` (stereo not drawn) [Example 88, N-[6-(8-Azabicyclo[3.2.1]octan-8-yl-methyl)-1,2,3,4-tetrahydro-naphthalen-2-yl]-2-[2-[[3-(trifluoromethyl)phenyl]sulfonyl]-1,2,3,4-tetrahydro-pyrrolo[1,2-a]pyrazin-1-yl]-acetamide] are 99.9% and 96.5%.
Consider `O=C(CC1c2cccn2CCN1S(=O)(=O)c1cccc(C(F)(F)F)c1)NC1CCCc2cc(CN3CCCCC3)ccc21` (stereo not drawn) [Example 89, N-[6-(Piperidin-1-yl-methyl)-1,2,3,4-tetrahydro-naphthalen-1-yl]-2-[2-[[3-(trifluoromethyl)phenyl]sulfonyl]-1,2,3,4-tetrahydro-pyrrolo[1,2-a]pyrazin-1-yl]-acetamide], for which the inhibition at 10 µM in assay [1] worked out at 100%; in assay [2], 99.1%.
As to `O=C(CC1c2cccn2CCN1S(=O)(=O)c1cccc(C(F)(F)F)c1)NC1CCCc2cc(CN3CCCc4ccccc43)ccc21` (stereo not drawn) [Example 90, N-[6-(1,2,3,4-Tetrahydro-quinolin-1-yl-methyl)-1,2,3,4-tetrahydro-naphthalen-1-yl]-2-[2-[[3-(trifluoromethyl)phenyl]sulfonyl]-1,2,3,4-tetrahydro-pyrrolo[1,2-a]pyrazin-1-yl]-acetamide], the inhibition at 10 µM came to 54.6% in assay [1] and 51.4% in assay [2].
The corresponding values for `Cc1ccc(S(=O)(=O)N2CCn3cccc3C2CC(=O)NC2CCCc3cc(CN4CCCC4)ccc32)cc1Cl` (stereo not drawn) [Example 91, 2-[2-[(3-Chloro-4-methyl-phenyl)sulfonyl]-1,2,3,4-tetrahydro-pyrrolo[1,2-a]pyrazin-1-yl]-N-[6-(pyrrolidin-1-yl-methyl)-1,2,3,4-tetrahydro-naphthalen-1-yl]-acetamide] are 99.9% and 99%.
The corresponding values for `CN(C)Cc1ccc2c(c1)CCC(NC(=O)CC1c3cccn3CCN1S(=O)(=O)c1cccc(C(F)(F)F)c1)C2` (stereo not drawn) [Example 92, N-[6-(Dimethylaminomethyl)-1,2,3,4-tetrahydro-naphthalen-2-yl]-2-[2-[[3-(trifluoromethyl)phenyl]sulfonyl]-1,2,3,4-tetrahydro-pyrrolo[1,2-a]pyrazin-1-yl]-acetamide] are 99.9% and 102%.

Source of the values: US8158628B2, “Sulfonylated 1,2,3,4-tetrahydropyrrolo[1,2-a]pyrazine compounds and their use as pharmaceuticals” (Gruenenthal GmbH, priority 2009, dated 2012).
